Molecules are shown by their SMILES.

The values below come from publication PMC5064019, “Nicotinamide is an endogenous agonist for a C. elegans TRPV OSM-9 and OCR-4 channel” (Nature Communications, 2016).

Assay [1] concerns the target T1, OSM-9–OCR-4 TRPV channel (Caenorhabditis elegans, UniProt G5EBV8+Q9N3Y9).
T1 construct: untagged cDNAs (osm-9 in pGEMHE, ocr-4 in pOX); cRNAs co-injected in Xenopus oocytes; heterotetramer, likely 2:2
T1 sequence (G5EBV8 1-937): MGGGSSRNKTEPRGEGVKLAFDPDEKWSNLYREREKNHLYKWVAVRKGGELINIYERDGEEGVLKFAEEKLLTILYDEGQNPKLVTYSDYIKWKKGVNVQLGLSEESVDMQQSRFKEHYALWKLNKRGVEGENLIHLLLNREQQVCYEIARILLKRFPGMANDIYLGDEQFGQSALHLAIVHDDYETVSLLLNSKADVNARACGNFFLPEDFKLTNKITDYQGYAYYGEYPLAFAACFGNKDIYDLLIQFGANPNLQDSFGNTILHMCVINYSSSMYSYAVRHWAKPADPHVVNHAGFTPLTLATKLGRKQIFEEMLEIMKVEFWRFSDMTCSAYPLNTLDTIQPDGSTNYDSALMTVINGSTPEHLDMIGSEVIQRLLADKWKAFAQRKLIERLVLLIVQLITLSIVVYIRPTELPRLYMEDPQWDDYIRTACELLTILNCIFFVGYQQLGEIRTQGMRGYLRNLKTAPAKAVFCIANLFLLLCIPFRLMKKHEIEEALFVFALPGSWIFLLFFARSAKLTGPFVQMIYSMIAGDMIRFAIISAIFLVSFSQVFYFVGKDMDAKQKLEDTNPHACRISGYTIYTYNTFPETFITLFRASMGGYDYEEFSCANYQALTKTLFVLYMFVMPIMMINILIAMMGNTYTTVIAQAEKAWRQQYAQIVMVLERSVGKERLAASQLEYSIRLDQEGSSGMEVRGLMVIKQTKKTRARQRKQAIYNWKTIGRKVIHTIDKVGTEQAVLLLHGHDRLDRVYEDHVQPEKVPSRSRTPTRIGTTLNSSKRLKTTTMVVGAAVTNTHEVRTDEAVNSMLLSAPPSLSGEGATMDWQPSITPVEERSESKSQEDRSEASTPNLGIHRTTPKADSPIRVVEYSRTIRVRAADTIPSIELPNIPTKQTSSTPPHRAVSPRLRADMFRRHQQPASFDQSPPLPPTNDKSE
T1 sequence (Q9N3Y9 1-756): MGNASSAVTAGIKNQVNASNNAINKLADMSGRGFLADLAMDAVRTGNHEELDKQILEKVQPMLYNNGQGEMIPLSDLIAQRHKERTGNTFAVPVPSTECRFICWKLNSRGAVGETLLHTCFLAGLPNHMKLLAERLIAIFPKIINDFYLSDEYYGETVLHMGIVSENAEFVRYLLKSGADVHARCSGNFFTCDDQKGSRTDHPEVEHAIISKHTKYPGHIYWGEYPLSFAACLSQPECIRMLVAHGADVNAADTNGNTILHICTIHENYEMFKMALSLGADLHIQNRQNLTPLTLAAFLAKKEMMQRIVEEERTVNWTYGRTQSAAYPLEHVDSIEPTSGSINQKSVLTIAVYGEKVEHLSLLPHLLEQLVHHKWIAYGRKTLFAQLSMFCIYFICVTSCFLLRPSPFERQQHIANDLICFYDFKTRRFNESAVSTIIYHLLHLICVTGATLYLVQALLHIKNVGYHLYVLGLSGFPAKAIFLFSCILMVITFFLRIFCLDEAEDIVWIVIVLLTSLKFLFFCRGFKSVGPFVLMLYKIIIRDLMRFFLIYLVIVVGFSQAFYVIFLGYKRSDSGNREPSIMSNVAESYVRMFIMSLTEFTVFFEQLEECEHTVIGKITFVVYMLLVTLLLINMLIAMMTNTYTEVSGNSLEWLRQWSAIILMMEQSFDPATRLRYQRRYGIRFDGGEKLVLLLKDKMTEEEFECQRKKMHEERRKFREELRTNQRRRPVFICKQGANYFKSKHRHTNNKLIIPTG
Put plainly: two-electrode voltage clamp, Xenopus oocytes, Hill fit. As to conditions: read-out: K1/2. The assay is classed as cell-based. (Two-electrode voltage clamp holds a large cell at a set potential and records current.)

The target in assay [2] is T2, Nan–Iav TRPV channel (Drosophila melanogaster, UniProt Q9VUD5+Q9W3W0).
T2 construct: iav cDNA in pCR4-TOPO, synthesized nan cDNA in pcDNA3.1; cRNAs co-injected in Xenopus oocytes; heteromeric channel
T2 sequence (Q9VUD5 1-833): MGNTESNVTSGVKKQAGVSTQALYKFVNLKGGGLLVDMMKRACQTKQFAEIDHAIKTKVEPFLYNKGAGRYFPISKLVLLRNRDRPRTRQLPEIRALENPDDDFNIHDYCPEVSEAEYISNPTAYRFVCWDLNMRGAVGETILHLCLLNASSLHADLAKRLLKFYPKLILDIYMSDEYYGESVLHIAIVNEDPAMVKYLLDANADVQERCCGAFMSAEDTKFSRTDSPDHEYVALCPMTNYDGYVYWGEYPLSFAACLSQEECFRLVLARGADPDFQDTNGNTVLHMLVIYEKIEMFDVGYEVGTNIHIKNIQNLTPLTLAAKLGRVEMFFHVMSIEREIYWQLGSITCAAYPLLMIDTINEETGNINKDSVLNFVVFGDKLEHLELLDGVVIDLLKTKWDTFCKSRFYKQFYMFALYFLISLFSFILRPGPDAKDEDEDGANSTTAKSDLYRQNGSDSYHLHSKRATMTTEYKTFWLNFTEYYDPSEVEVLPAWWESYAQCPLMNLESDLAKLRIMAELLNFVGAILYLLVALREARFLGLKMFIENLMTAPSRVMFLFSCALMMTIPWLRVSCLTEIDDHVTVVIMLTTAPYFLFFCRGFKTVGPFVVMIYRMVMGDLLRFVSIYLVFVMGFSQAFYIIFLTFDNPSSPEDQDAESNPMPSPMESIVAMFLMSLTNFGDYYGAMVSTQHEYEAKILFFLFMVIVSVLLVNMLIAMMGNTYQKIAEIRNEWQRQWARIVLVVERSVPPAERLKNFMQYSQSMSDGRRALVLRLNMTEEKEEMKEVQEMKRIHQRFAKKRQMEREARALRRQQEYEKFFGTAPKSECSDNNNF
T2 sequence (Q9W3W0 1-1123): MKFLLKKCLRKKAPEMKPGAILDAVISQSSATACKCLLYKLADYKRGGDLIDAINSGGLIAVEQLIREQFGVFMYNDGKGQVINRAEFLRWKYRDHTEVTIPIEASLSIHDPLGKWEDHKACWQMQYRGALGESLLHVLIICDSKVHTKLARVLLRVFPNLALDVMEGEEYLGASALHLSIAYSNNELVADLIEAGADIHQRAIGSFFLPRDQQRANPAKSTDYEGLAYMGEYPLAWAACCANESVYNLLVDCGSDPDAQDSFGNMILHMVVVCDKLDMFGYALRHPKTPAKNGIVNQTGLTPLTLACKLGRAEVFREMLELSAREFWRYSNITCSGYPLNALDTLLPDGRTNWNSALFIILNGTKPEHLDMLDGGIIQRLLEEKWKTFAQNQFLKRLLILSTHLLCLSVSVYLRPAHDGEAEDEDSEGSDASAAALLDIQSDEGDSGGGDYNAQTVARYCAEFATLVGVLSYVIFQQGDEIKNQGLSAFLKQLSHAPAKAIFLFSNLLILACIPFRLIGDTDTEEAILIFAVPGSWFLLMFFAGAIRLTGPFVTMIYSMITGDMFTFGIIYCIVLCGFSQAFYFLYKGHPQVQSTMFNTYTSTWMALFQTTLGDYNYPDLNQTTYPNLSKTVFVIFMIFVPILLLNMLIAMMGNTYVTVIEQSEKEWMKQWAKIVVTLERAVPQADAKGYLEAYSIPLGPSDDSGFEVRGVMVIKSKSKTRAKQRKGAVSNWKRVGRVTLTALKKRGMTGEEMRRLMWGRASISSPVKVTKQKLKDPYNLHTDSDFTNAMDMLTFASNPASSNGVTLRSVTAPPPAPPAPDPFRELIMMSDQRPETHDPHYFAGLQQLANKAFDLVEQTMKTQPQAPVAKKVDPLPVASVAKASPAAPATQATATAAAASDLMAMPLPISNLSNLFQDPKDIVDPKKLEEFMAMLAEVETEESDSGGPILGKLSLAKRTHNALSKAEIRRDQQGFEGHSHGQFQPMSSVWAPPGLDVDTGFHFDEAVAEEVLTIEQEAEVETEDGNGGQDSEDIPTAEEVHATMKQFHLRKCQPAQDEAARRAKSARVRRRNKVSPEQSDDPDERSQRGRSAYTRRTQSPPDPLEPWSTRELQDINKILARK
Described as above. The assay is classed as cell-based. The note with it: read-out: K1/2.

With `NC(=O)c1cccnc1` [nicotinamide], the EC50 in assay [1] was determined as 63.3 ± 13.2 µM; in assay [2] it was 14.4 ± 1 µM.
